{
  "source": "patent US6589915B1",
  "about": "“Benzohetero cyclylcyclo hexenones and their use as herbicides” (BASF Aktiengesellschaft, priority 1999, dated 2003)",
  "type_in_all_cases": "in vivo",
  "key": {"wheat": {"test_system": "wheat", "test": "greenhouse post-emergence test, crop selectivity", "details": "0.25 and 0.5 kg/ha (a.s.)", "source_text": "(§1) The seeds of the test plants were sown separately for each species. For the post-emergence treatment, the test plants were first, grown to a plant height of from 3 to 15 cm, depending on the plant habit, and only then treated with the active ingredients which had been suspended or emulsified in water. To this end, the test plants were either sown directly and grown in the same containers, or they were first grown separately as seedlings and transplanted into the test containers a few days prior to treatment. […] Depending on the species, the plants were kept at from 10 to 25° C., or 20 to 35° C., respectively. The test period extended over 2 to 4 weeks. During this time, the plants were tended, and their response to the individual treatments was evaluated. Evaluation was carried out using a scale of from 0 to 100. 100 means no emergence of the plants, or complete destruction of at least the aerial parts, and 0 means no damage, or normal course of growth. [table] The following experiments were performed by the post-emergence method."}, "POLPE (ladysthumb)": {"test_system": "POLPE (ladysthumb)", "test": "greenhouse post-emergence herbicidal test", "source_text": "as §1"}, "[1]": {"test_system": "CHEAL (lambsquarters (goosefoot))", "test": "greenhouse post-emergence herbicidal test", "source_text": "as §1"}, "AMARE (redroot pigweed)": {"test_system": "AMARE (redroot pigweed)", "test": "greenhouse post-emergence herbicidal test", "source_text": "as §1"}, "IPOSS": {"test_system": "IPOSS", "test": "greenhouse post-emergence herbicidal test", "source_text": "as §1, with “growth.” for “growth. [table]”"}, "ECHCG (barnyard grass)": {"test_system": "ECHCG (barnyard grass)", "test": "greenhouse post-emergence herbicidal test", "source_text": "as §1"}, "ABUTH (velvet leaf)": {"test_system": "ABUTH (velvet leaf)", "test": "greenhouse post-emergence herbicidal test", "source_text": "as §1"}, "SETFA (giant foxtail)": {"test_system": "SETFA (giant foxtail)", "test": "greenhouse post-emergence herbicidal test", "source_text": "as §1"}, "PHPBU": {"test_system": "PHPBU", "test": "greenhouse post-emergence herbicidal test", "details": "0.125 and 0.25 kg/ha (a.s.)", "source_text": "(§2) The seeds of the test plants were sown separately for each species. For the post-emergence treatment, the test plants were first, grown to a plant height of from 3 to 15 cm, depending on the plant habit, and only then treated with the active ingredients which had been suspended or emulsified in water. To this end, the test plants were either sown directly and grown in the same containers, or they were first grown separately as seedlings and transplanted into the test containers a few days prior to treatment. The rat e of application for the post-emergence treatment was 0.25 or 0.125 kg of a.s. (active substance)/ha. Depending on the species, the plants were kept at from 10 to 25° C., or 20 to 35° C., respectively. The test period extended over 2 to 4 weeks. During this time, the plants were tended, and their response to the individual treatments was evaluated. Evaluation was carried out using a scale of from 0 to 100. 100 means no emergence of the plants, or complete destruction of at least the aerial parts, and 0 means no damage, or normal course of growth. [table] The following experiments were performed by the post-emergence method."}, "[2]": {"test_system": "GALAP (catchweed bedstraw)", "test": "greenhouse post-emergence herbicidal test", "details": "0.125 and 0.25 kg/ha (a.s.)", "source_text": "as §2"}},
  "data": [
    {"compound": "Cc1c(C(=O)C2=C(O)CCCC2=O)ccc2scnc12", "note": "[Example I-1a.394]", "values": [
      {"measurement": "selectivity in wheat", "setting": "wheat", "result": "selectivity"},
      {"measurement": "herbicidal action against POLPE", "setting": "POLPE (ladysthumb); 0.25 and 0.5 kg/ha (a.s.)", "result": "very good"},
      {"measurement": "herbicidal action against CHEAL", "setting": "[1]; 0.25 and 0.5 kg/ha (a.s.)", "result": "very good"},
      {"measurement": "herbicidal action against AMARE", "setting": "AMARE (redroot pigweed); 0.25 and 0.5 kg/ha (a.s.)", "result": "very good"},
      {"measurement": "herbicidal action against IPOSS", "setting": "IPOSS; 0.25 and 0.5 kg/ha (a.s.)", "result": "very good"}
    ]},
    {"compound": "Cc1c(C(=O)C2=C(O)CCCC2=O)ccc2sc(C(C)C)nc12", "note": "[Example I-1a.408]", "values": [
      {"measurement": "herbicidal action against ECHCG", "setting": "ECHCG (barnyard grass); 0.125 and 0.25 kg/ha (a.s.)", "result": "good to very good"},
      {"measurement": "herbicidal action against POLPE", "setting": "POLPE (ladysthumb); 0.125 and 0.25 kg/ha (a.s.)", "result": "good to very good"},
      {"measurement": "herbicidal action against CHEAL", "setting": "[1]; 0.125 and 0.25 kg/ha (a.s.)", "result": "good to very good"},
      {"measurement": "herbicidal action against ABUTH", "setting": "ABUTH (velvet leaf); 0.125 and 0.25 kg/ha (a.s.)", "result": "good to very good"}
    ]},
    {"compound": "Cc1c(C(=O)C2=C(O)CC(C)(C)CC2=O)ccc2sc(Cl)nc12", "note": "[Example I-1c.396]", "values": [
      {"measurement": "herbicidal action against ECHCG", "setting": "ECHCG (barnyard grass); 0.25 and 0.5 kg/ha (a.s.)", "result": "good to very good"},
      {"measurement": "herbicidal action against SETFA", "setting": "SETFA (giant foxtail); 0.25 and 0.5 kg/ha (a.s.)", "result": "good to very good"},
      {"measurement": "herbicidal action against CHEAL", "setting": "[1]; 0.25 and 0.5 kg/ha (a.s.)", "result": "good to very good"},
      {"measurement": "herbicidal action against AMARE", "setting": "AMARE (redroot pigweed); 0.25 and 0.5 kg/ha (a.s.)", "result": "good to very good"}
    ]},
    {"compound": "CCc1nc2c(C)c(C(=O)C3=C(O)C4CCC(C4)C3=O)ccc2s1", "note": "(centres unmarked) [Example I-1x.406]", "values": [
      {"measurement": "herbicidal action against ECHCG", "setting": "ECHCG (barnyard grass); 0.125 and 0.25 kg/ha (a.s.)", "result": "very good"},
      {"measurement": "herbicidal action against POLPE", "setting": "POLPE (ladysthumb); 0.125 and 0.25 kg/ha (a.s.)", "result": "very good"},
      {"measurement": "herbicidal action against CHEAL", "setting": "[1]; 0.125 and 0.25 kg/ha (a.s.)", "result": "very good"},
      {"measurement": "herbicidal action against ABUTH", "setting": "ABUTH (velvet leaf); 0.125 and 0.25 kg/ha (a.s.)", "result": "very good"}
    ]},
    {"compound": "COCc1nc2c(C)c(C(=O)C3=C(O)C4CCC(C4)C3=O)ccc2s1", "note": "(centres unmarked) [Example I-1x.420]", "values": [
      {"measurement": "herbicidal action against PHPBU", "setting": "PHPBU", "result": "very good"},
      {"measurement": "herbicidal action against ECHCG", "setting": "ECHCG (barnyard grass); 0.125 and 0.25 kg/ha (a.s.)", "result": "very good"},
      {"measurement": "herbicidal action against SETFA", "setting": "SETFA (giant foxtail); 0.125 and 0.25 kg/ha (a.s.)", "result": "very good"},
      {"measurement": "herbicidal action against POLPE", "setting": "POLPE (ladysthumb); 0.125 and 0.25 kg/ha (a.s.)", "result": "very good"},
      {"measurement": "herbicidal action against CHEAL", "setting": "[1]; 0.125 and 0.25 kg/ha (a.s.)", "result": "very good"}
    ]},
    {"compound": "CSc1nc2c(C)c(C(=O)C3=C(O)C4CCC(C4)C3=O)ccc2s1", "note": "(centres unmarked) [Example I-1x.435]", "values": [
      {"measurement": "herbicidal action against ECHCG", "setting": "ECHCG (barnyard grass); 0.0625 and 0.125 kg/ha (a.s.)", "result": "very good"},
      {"measurement": "herbicidal action against CHEAL", "setting": "[1]; 0.0625 and 0.125 kg/ha (a.s.)", "result": "very good"},
      {"measurement": "herbicidal action against AMARE", "setting": "AMARE (redroot pigweed); 0.0625 and 0.125 kg/ha (a.s.)", "result": "very good"}
    ]},
    {"compound": "Cc1c(C(=O)C2=C(O)C3CCC(C3)C2=O)ccc2sc(Oc3ccccc3F)nc12", "note": "(centres unmarked) [Example I-1x.790]", "values": [
      {"measurement": "herbicidal action against ECHCG", "setting": "ECHCG (barnyard grass); 0.125 and 0.25 kg/ha (a.s.)", "result": "very good"},
      {"measurement": "herbicidal action against SETFA", "setting": "SETFA (giant foxtail); 0.125 and 0.25 kg/ha (a.s.)", "result": "very good"},
      {"measurement": "herbicidal action against POLPE", "setting": "POLPE (ladysthumb); 0.125 and 0.25 kg/ha (a.s.)", "result": "very good"},
      {"measurement": "herbicidal action against CHEAL", "setting": "[1]; 0.125 and 0.25 kg/ha (a.s.)", "result": "very good"}
    ]},
    {"compound": "CCc1nc2c(C)c(C(=O)C3=C(O)CCCC3=O)ccc2o1", "note": "[Example I-2a.406]", "values": [
      {"measurement": "herbicidal action against GALAP", "setting": "[2]", "result": "good"},
      {"measurement": "herbicidal action against CHEAL", "setting": "[1]; 0.125 and 0.25 kg/ha (a.s.)", "result": "very good"},
      {"measurement": "herbicidal action against ABUTH", "setting": "ABUTH (velvet leaf); 0.125 and 0.25 kg/ha (a.s.)", "result": "very good"},
      {"measurement": "herbicidal action against AMARE", "setting": "AMARE (redroot pigweed); 0.125 and 0.25 kg/ha (a.s.)", "result": "very good"},
      {"measurement": "herbicidal action against IPOSS", "setting": "IPOSS; 0.125 and 0.25 kg/ha (a.s.)", "result": "very good"}
    ]},
    {"compound": "CCc1nc2c(C)c(C(=O)C3=C(O)C4CCC(C4)C3=O)ccc2o1", "note": "(centres unmarked) [Example I-2x.406]", "values": [
      {"measurement": "herbicidal action against ECHCG", "setting": "ECHCG (barnyard grass); 0.0625 and 0.125 kg/ha (a.s.)", "result": "good to very good"},
      {"measurement": "herbicidal action against POLPE", "setting": "POLPE (ladysthumb); 0.0625 and 0.125 kg/ha (a.s.)", "result": "good to very good"},
      {"measurement": "herbicidal action against CHEAL", "setting": "[1]; 0.0625 and 0.125 kg/ha (a.s.)", "result": "good to very good"},
      {"measurement": "herbicidal action against ABUTH", "setting": "ABUTH (velvet leaf); 0.0625 and 0.125 kg/ha (a.s.)", "result": "good to very good"}
    ]}
  ]
}
